Bounds are passed on as bounds.

The test system of this assay is CD8+ T cells. The format is cell-based, human.
As for `CC(C)C[C@H](NC(=O)[C@H](Cc1ccc(O)cc1)NC(=O)[C@H](CO)NC(=O)[C@H](CCC(N)=O)NC(=O)[C@H](C)NC(=O)[C@@H](NC(=O)[C@@H]1CCCN1C(=O)[C@H](CO)NC(=O)[C@H](C)N)C(C)C)C(=O)O`, the “# SFU” value turned out to be 210. On the same count and under the same terms, to RADEEQQQAL belongs 120; to ELPQWLSANR, less than 10; to `CC(C)[C@H](NC(=O)[C@H](Cc1ccccc1)NC(=O)[C@H](CCCNC(=N)N)NC(=O)[C@H](C)NC(=O)[C@H](Cc1c[nH]cn1)NC(=O)[C@H](C)NC(=O)[C@H](C)N)C(=O)N[C@@H](C)C(=O)N[C@@H](C)C(=O)O`, 88. With `CSCC[C@H](NC(=O)[C@H](CCC(=O)O)NC(=O)[C@H](C)N)C(=O)N[C@@H](CCCCN)C(=O)N[C@H](C(=O)N[C@@H](CC(=O)O)C(=O)N[C@@H](C)C(=O)N[C@@H](C)C(=O)N[C@H](C(=O)N[C@@H](CC(C)C)C(=O)N[C@@H](C)C(=O)O)[C@@H](C)O)[C@@H](C)O`, the “# SFU” value turned out to be 1993. On to `CC[C@H](C)[C@H](NC(=O)[C@H](Cc1c[nH]cn1)NC(=O)[C@H](C)NC(=O)[C@H](CC(=O)O)NC(=O)[C@H](CC(C)C)NC(=O)[C@@H](N)CC(C)C)C(=O)N1CCC[C@H]1C(=O)N[C@@H](CCC(N)=O)C(=O)N[C@@H](CC(C)C)C(=O)O`, for which the “# SFU” value was less than 10. Take `CC[C@H](C)[C@H](NC(=O)[C@@H](N)CC(N)=O)C(=O)N[C@@H](CCCNC(=N)N)C(=O)N[C@@H](CCC(N)=O)C(=O)N[C@@H](C)C(=O)NCC(=O)N[C@H](C(=O)N[C@@H](CCC(N)=O)C(=O)N[C@@H](Cc1ccc(O)cc1)C(=O)O)C(C)C`: the “# SFU” value was found to be 1715. Take `CSCC[C@H](NC(=O)[C@H](CCC(=O)O)NC(=O)[C@H](C)N)C(=O)N[C@@H](CCCCN)C(=O)N[C@H](C(=O)N[C@@H](CC(=O)O)C(=O)N[C@@H](C)C(=O)N[C@@H](C)C(=O)O)[C@@H](C)O`: the “# SFU” value is recorded as 2458. On the same count and under the same terms, to `CC(C)[C@H](NC(=O)[C@H](C)NC(=O)[C@H](C)NC(=O)[C@H](CCC(N)=O)NC(=O)[C@H](C)NC(=O)[C@H](C)NC(=O)[C@@H](N)[C@@H](C)O)C(=O)N[C@H](C(=O)N[C@@H](CCCNC(=N)N)C(=O)N[C@@H](Cc1ccccc1)C(=O)O)C(C)C` belongs 258; to `CSCC[C@H](NC(=O)[C@@H](N)CCC(=O)O)C(=O)N[C@@H](CCCCN)C(=O)N[C@H](C(=O)N[C@@H](CC(=O)O)C(=O)N[C@@H](C)C(=O)N[C@@H](C)C(=O)N[C@H](C(=O)N[C@@H](CC(C)C)C(=O)O)[C@@H](C)O)[C@@H](C)O`, 387. QTVEDEARRMW: the “#SFU/250,000 CD8+ T-cells” value is 84. As for `CC[C@H](C)[C@H](NC(=O)[C@@H](NC(=O)[C@H](C)N)C(C)C)C(=O)N[C@@H](CC(N)=O)C(=O)N[C@H](C(=O)N[C@H](C(=O)N[C@@H](CS)C(=O)N[C@@H](CC(N)=O)C(=O)N[C@@H](Cc1ccc(O)cc1)C(=O)NCC(=O)N[C@@H](CCC(N)=O)C(=O)O)[C@@H](C)O)[C@@H](C)O`, the “# SFU” value is on record as 24.

(Values after patent US8658350B2 (priority 2008, dated 2014).)
